This note sets out measurements from patent US20240116946A1 (Gilead Sciences, Inc., priority 2022, published 2024).

The test system of one test is SARS-CoV-2-NLuc. The test is described as follows: microbe, parasite or virus in culture. Type of test: cell-based, SARS Coronavirus 2.
The target in test [1] is recombinant SARS-CoV-2 Main protease (Mpro) (Severe acute respiratory syndrome coronavirus 2 (2019-nCoV) (SARS-CoV-2), UniProt P0DTD1). In words: Cov Mpro Biochemical IC50 Assay. The note with it: read-out: MPro IC50.
Setting [2] is: Severe acute respiratory syndrome coronavirus, 48 h, read-out: MPro EC50.
The mark [3] stands for this setting: recombinant SARS-CoV-2 Mpro, fluorogenic peptide substrate.
The mark [4] stands for this setting: Severe acute respiratory syndrome coronavirus, 48 h; read-out: MPro EC50.
Where [5] appears, read: recombinant SARS-CoV-2 Mpro 7.5 nM, fluorogenic peptide substrate 40 μM.

Read-outs that look alike come from different tables or passages of the source.

What is called EC50 is the concentration that produces a half-maximal response. The term IC50 denotes the midpoint of a concentration-inhibition curve. Take `O=c1[nH]c2cc(-c3ccccc3)sc2c(=O)n1-c1cncc2ccccc12` [Example 2]: the EC50 in the test with SARS-CoV-2-NLuc (setting [2]) turned out to be 2490 nM. The IC50 in test [1] (setting [3]) turned out to be 267 nM.

Regarding `Cc1c(Cl)cncc1-n1c(=O)c2sc(-c3ccc(F)cc3C#N)cc2n(CCC#N)c1=O` [Example 808], in the test on SARS-CoV-2-NLuc (setting [4]), the concentration giving a half-maximal response (EC50) came to 183 nM. For the same compound, the IC50 in test [1] (setting [5]) amounted to 74.5 nM.

Turning to `O=c1[nH]c2cc(-c3c(Cl)cccc3-c3cnn4c3CNCC4)ccc2c(=O)n1-c1cncc2ccccc12` [Example 474], in the test with SARS-CoV-2-NLuc (setting [2]), the half-maximal effective concentration (EC50) worked out at 124 nM. Moreover, the IC50 in test [1] (setting [5]) stood at 14 nM.

For `CS(=O)(=O)N1CC(Nc2ccc3cncc(-n4c(=O)[nH]c5cc(-c6ccccc6Cl)sc5c4=O)c3c2)C1` [Example 406], the EC50 with SARS-CoV-2-NLuc (setting [2]) was 471 nM. Besides, the IC50 in test [1] (setting [5]) was found to be 12.6 nM.

As to `COc1cc(-c2cc3c(s2)c(=O)n(-c2cncc4ccccc24)c(=O)n3CC#N)c(Cl)cc1F` [Example 630, 2-[6-(2-chloro-4-fluoro-5-methoxy-phenyl)-3-(4-isoquinolyl)-2,4-dioxo-thieno[3,2-d]pyrimidin-1-yl]acetonitrile], the EC50 in the test on SARS-CoV-2-NLuc (setting [4]) came to 9.35 nM. Moreover, in test [1] (setting [5]), the IC50 came out at 6.31 nM.

For “5-fluoro-2-[6-fluoro-3-(4-isoquinolyl)-2,4-dioxo-1H-quinazolin-7-yl]-4-methoxy-benzonitrile [Example 517]”, the EC50 in the test with SARS-CoV-2-NLuc (read-out: MPro EC50) was 35.9 nM. Also, in test [1] (setting [5]), the half-maximal inhibitory concentration (IC50) was 9.51 nM.

On to `Cn1cc(-c2cccc(Cl)c2-c2ccc3c(=O)n(-c4cncc5ccccc45)c(=O)[nH]c3c2)c(C(F)(F)F)n1` [Example 265], for which the half-maximal effective concentration (EC50) in the test with SARS-CoV-2-NLuc (setting [2]) was found to be 17.4 nM. Moreover, in test [1] (setting [3]), the IC50 is 25.9 nM.

Take `COc1cc(-c2cc3c(s2)c(=O)n(-c2cncc4cccnc24)c(=O)n3CCC#N)c(Cl)cc1F` (single isomer, unassigned) [Example 1036, 3-(6-(2-chloro-4-fluoro-5-methoxyphenyl)-3-(1,6-naphthyridin-8-yl)-2,4-dioxo-3,4-dihydrothieno[3,2-d]pyrimidin-1(2H)-yl)propanenitrile]: the half-maximal effective concentration (EC50) with SARS-CoV-2-NLuc (read-out: MPro EC50) was 0.66 nM. In test [1] (setting [5]), the IC50 worked out at 1.42 nM.

For `COc1ccc(C#N)c(-c2cc3[nH]c(=O)n(-c4cncc5ccccc45)c(=O)c3cc2OC)c1` [Example 312], the EC50 in the test on SARS-CoV-2-NLuc (setting [2]) was 20.4 nM. In addition, the IC50 in test [1] (setting [3]) is 14.3 nM.

Turning to `COc1cc(-c2cc3c(s2)c(=O)n(-c2cncc(F)c2C)c(=O)n3CCC#N)c(C#N)cc1F` [Example 849], the half-maximal effective concentration (EC50) in the test with SARS-CoV-2-NLuc (setting [2]) stood at 30.4 nM. In addition, in test [1] (setting [5]), the IC50 came to 12.8 nM.

For the compound `O=c1[nH]c2cc(-c3c(Cl)cccc3-c3cnn4c3CCCC4)ccc2c(=O)n1-c1cncc2ccccc12` [Example 306], the concentration giving a half-maximal response (EC50) in the test on SARS-CoV-2-NLuc (setting [2]) was 5.19 nM. Further, in test [1] (setting [3]), the IC50 was 8.21 nM.

As to `O=c1[nH]c2cc(-c3ccccc3Cl)sc2c(=O)n1-c1cnccc1N1CCOCC1` [Example 139], in the test with SARS-CoV-2-NLuc (setting [2]), the EC50 amounted to 595 nM. The IC50 in test [1] (setting [3]) worked out at 108 nM.

For `COCCn1cc2cncc(-n3c(=O)c4sc(-c5cc(OC)c(F)cc5Cl)cc4n(CCC#N)c3=O)c2n1` [Example 914], the concentration for a half-maximal effect (EC50) in the test with SARS-CoV-2-NLuc (setting [2]) worked out at 10.9 nM. Further, the half-inhibitory concentration (IC50) in test [1] (setting [5]) turned out to be 4.76 nM.

On to `Cc1cc(-c2cccc(Cl)c2-c2cc3[nH]c(=O)n(-c4cncc5ccccc45)c(=O)c3s2)cnn1` [Example 111, 6-(2-chloro-6-(6-methylpyridazin-4-yl)phenyl)-3-(isoquinolin-4-yl)thieno[3,2-d]pyrimidine-2,4(1H,3H)-dione], for which the concentration giving a half-maximal response (EC50) in the test on SARS-CoV-2-NLuc (setting [4]) came out at 78.9 nM. Further, the IC50 in test [1] (setting [3]) stood at 6.88 nM.

In the case of `COc1cc(-c2cc3[nH]c(=O)n(-c4cncc5ccccc45)c(=O)c3s2)c(Cl)cc1Cl` [Example 342], the EC50 in the test with SARS-CoV-2-NLuc (setting [2]) worked out at 6.76 nM. Besides, in test [1] (setting [3]), the IC50 turned out to be 4.49 nM.

Regarding `COc1cc(-c2cc3[nH]c(=O)n(-c4cncc5scc(C)c45)c(=O)c3s2)c(Cl)cc1F` [Example 611, 6-(2-chloro-4-fluoro-5-methoxyphenyl)-3-(3-methylthieno[2,3-c]pyridin-4-yl)thieno[3,2-d]pyrimidine-2,4(1H,3H)-dione], in the test on SARS-CoV-2-NLuc (setting [2]), the EC50 was 4.95 nM. Also, in test [1] (setting [5]), the half-maximal inhibitory concentration (IC50) is less than 2.54 nM.

`CCc1cncc(-n2c(=O)[nH]c3cc(-c4ccccc4Cl)sc3c2=O)c1` [Example 217]: the EC50 in the test with SARS-CoV-2-NLuc (setting [2]) was 96.2 nM. Moreover, in test [1] (setting [3]), the 50% inhibitory concentration (IC50) was determined as 66.6 nM.

On to `N#CCCn1c(=O)n(-c2cccnc2)c(=O)c2sc(-c3ccccc3Cl)cc21` [Example 804], for which the EC50 in the test with SARS-CoV-2-NLuc (setting [4]) came to 45 nM. Moreover, in test [1] (setting [5]), the IC50 was 14 nM.

Consider `Cc1n[nH]cc1-c1cccc(Cl)c1-c1ccc2c(=O)n(-c3cncc4ccccc34)c(=O)[nH]c2c1` [Example 261], for which, in the test on SARS-CoV-2-NLuc (setting [2]), the concentration giving a half-maximal response (EC50) stood at 98.6 nM. Also, in test [1] (setting [3]), the IC50 is 79 nM.

As for `COc1cc(-c2cc3c(s2)c(=O)n(-c2cncc4nc(C)sc24)c(=O)n3CCC#N)c(Cl)cc1F` [Example 941], the 50% effective concentration (EC50) with SARS-CoV-2-NLuc (setting [2]) was determined as 40.1 nM. Also, in test [1] (setting [5]), the IC50 worked out at 7.53 nM.

As for `Cc1cc(Cl)ncc1-c1cc2[nH]c(=O)n(-c3cncc4ccccc34)c(=O)c2s1` [Example 287], the concentration for a half-maximal effect (EC50) in the test on SARS-CoV-2-NLuc (setting [2]) was greater than 922 nM. In addition, the IC50 in test [1] (setting [3]) was found to be 226 nM.

For the compound `COc1cc(-c2cc3c(s2)c(=O)n(-c2cncc(N(C)C)c2)c(=O)n3CCC#N)c(Cl)cc1F` [Example 874], the EC50 in the test with SARS-CoV-2-NLuc (setting [2]) turned out to be 204 nM. Further, the concentration for half-maximal inhibition (IC50) in test [1] (setting [5]) turned out to be 41.4 nM.

For the compound `O=c1[nH]c2cc(-c3ccccc3-c3ccccc3Cl)ccc2c(=O)n1-c1cncc2ccccc12` [Example 74, 7-(2′-chloro-[1,1′-biphenyl]-2-yl)-3-(isoquinolin-4-yl)quinazoline-2,4(1H,3H)-dione], in the test on SARS-CoV-2-NLuc (setting [2]), the EC50 was found to be 711 nM. In test [1] (setting [3]), the IC50 came out at 470 nM.

As for `O=c1[nH]c2cc(-c3cccnc3)sc2c(=O)n1-c1cncc2ccccc12` [Example 5], the EC50 in the test with SARS-CoV-2-NLuc (setting [2]) was 1790 nM. Moreover, the IC50 in test [1] (setting [3]) stood at 342 nM.

For `COc1cc(-c2cc3c(s2)c(=O)n(-c2cncc(C)c2Cl)c(=O)n3CCC#N)c(Cl)cc1F` [Example 944], the 50% effective concentration (EC50) in the test with SARS-CoV-2-NLuc (setting [2]) came out at 8.22 nM. In addition, in test [1] (setting [5]), the half-maximal inhibitory concentration (IC50) came to 6.67 nM.

For the compound `Cc1c(-c2cccc(Cl)c2-c2ccc3c(=O)n(-c4cncc5ccccc45)c(=O)[nH]c3c2)cnn1C` [Example 243], in the test with SARS-CoV-2-NLuc (setting [2]), the EC50 turned out to be 12.2 nM. In addition, in test [1] (setting [3]), the IC50 came to 11.1 nM.

Take `O=c1[nH]c2cc(-c3ccccc3Cl)sc2c(=O)n1-c1cncc2c1OCCC2` [Example 588]: the EC50 in the test on SARS-CoV-2-NLuc (setting [2]) came out at 47.4 nM. Besides, in test [1] (setting [5]), the IC50 was 14.8 nM.

Consider `Cn1cc(-c2cccc(Cl)c2-c2ccc3c(=O)n(-c4cncc5ccccc45)c(=O)[nH]c3c2)c(C2CC2)n1` [Example 262], for which, in the test on SARS-CoV-2-NLuc (setting [2]), the half-maximal effective concentration (EC50) was less than 4.41 nM. For the same compound, the half-inhibitory concentration (IC50) in test [1] (setting [3]) was found to be 6.12 nM.

Regarding `COc1cc(-c2cc3c(s2)c(=O)n(-c2cncc4cnn(C)c24)c(=O)n3CC#N)c(Cl)cc1F` (single isomer, unassigned) [Example 1013, 2-[6-(2-chloro-4-fluoro-5-methoxy-phenyl)-3-(1-methylpyrazolo[4,3-c]pyridin-7-yl)-2,4-dioxo-thieno[3,2-d]pyrimidin-1-yl]acetonitrile], the concentration giving a half-maximal response (EC50) in the test with SARS-CoV-2-NLuc (read-out: MPro EC50) was 16.5 nM. Also, the concentration for half-maximal inhibition (IC50) in test [1] (setting [5]) was found to be 1.42 nM.

On to `O=c1[nH]c2cc(-c3ccccc3Cl)ccc2c(=O)n1-c1cncc2cccnc12` [Example 450], for which the concentration giving a half-maximal response (EC50) with SARS-CoV-2-NLuc (setting [2]) was determined as 211 nM. For the same compound, the IC50 in test [1] (setting [5]) amounted to 127 nM.

`CCOc1ccc(Cl)c(-c2ccc3c(=O)n(-c4cncc5ccccc45)c(=O)[nH]c3c2)c1` [Example 300]: in the test with SARS-CoV-2-NLuc (setting [2]), the EC50 turned out to be 60.5 nM. In addition, the 50% inhibitory concentration (IC50) in test [1] (setting [3]) was 148 nM.

Regarding `CNC(=O)[C@H]1C[C@@H]1c1cncc(-n2c(=O)[nH]c3cc(-c4ccccc4Cl)sc3c2=O)c1` [Example 383], the EC50 with SARS-CoV-2-NLuc (setting [2]) turned out to be 286 nM. For the same compound, in test [1] (setting [3]), the IC50 worked out at 5.23 nM.

For the compound `COc1cc(-c2cc3c(s2)c(=O)n(-c2cncc4nn(C)c(C)c24)c(=O)n3CCC#N)c(C#N)cc1F` [Example 895], the EC50 with SARS-CoV-2-NLuc (setting [2]) was determined as 218 nM. Moreover, the concentration for half-maximal inhibition (IC50) in test [1] (setting [5]) is 8.43 nM.
